The assay concerns the target NLRP3 inflammasome (Homo sapiens (Human), UniProt Q96P20). The assay can be described thus: Evaluation of NLRP3 inflammasome inhibitory activity (inhibition of IL-1β production in LPS/Nigericin-stimulated THP1-Null cells). The class given is cell-based. The note with it: IL-1β production in THP1-Null cells; for IC50: PMA, LPS 1 μg/mL, Nigericin 7.5 μmol/L, AlphaLISA. On the procedure: The NLRP3 inflammasome inhibitory activity of test compounds were evaluated on the basis of the inhibitory activity of the IL-1β production in THP1-Null cells (Product Number: thp-null, InvivoGen). […] The supernatant of the culture was removed, and thereto was added media for assay (25 μL/well) containing 1 μg/mL Lipopolysaccharides (Product Number: L2654, Sigma-Aldrich (registered trademark)). […] The supernatant of the culture was removed. […] A solution containing a test compound (20 μL/well) was added to test compound-setting wells. […] The supernatant of the culture was cryonically stored (set at −20° C.) until measurement of IL-1β.
The amount of IL-1β in the culture supernatant was quantitated with AlphaLISA(registered trademark) Human IL-1β Detection Kit (Product Number: AL220C, Perkin Elmer). Fluorescence intensity was measured with a microplate reader EnSpier (Model number: 2300-00J, Perkin Elmer) or EnSight(Model number: HH34000000, Perkin Elmer) according to procedure manuals attached thereto. Inhibition rates of the test compound-setting wells were calculated on the basis of 100% for the blank-setting wells and 0% for the control-setting wells.
(In Alpha technology, singlet oxygen from a donor bead excites a nearby acceptor bead.)

Chain of NLRP3 inflammasome (Q96P20 whole entry): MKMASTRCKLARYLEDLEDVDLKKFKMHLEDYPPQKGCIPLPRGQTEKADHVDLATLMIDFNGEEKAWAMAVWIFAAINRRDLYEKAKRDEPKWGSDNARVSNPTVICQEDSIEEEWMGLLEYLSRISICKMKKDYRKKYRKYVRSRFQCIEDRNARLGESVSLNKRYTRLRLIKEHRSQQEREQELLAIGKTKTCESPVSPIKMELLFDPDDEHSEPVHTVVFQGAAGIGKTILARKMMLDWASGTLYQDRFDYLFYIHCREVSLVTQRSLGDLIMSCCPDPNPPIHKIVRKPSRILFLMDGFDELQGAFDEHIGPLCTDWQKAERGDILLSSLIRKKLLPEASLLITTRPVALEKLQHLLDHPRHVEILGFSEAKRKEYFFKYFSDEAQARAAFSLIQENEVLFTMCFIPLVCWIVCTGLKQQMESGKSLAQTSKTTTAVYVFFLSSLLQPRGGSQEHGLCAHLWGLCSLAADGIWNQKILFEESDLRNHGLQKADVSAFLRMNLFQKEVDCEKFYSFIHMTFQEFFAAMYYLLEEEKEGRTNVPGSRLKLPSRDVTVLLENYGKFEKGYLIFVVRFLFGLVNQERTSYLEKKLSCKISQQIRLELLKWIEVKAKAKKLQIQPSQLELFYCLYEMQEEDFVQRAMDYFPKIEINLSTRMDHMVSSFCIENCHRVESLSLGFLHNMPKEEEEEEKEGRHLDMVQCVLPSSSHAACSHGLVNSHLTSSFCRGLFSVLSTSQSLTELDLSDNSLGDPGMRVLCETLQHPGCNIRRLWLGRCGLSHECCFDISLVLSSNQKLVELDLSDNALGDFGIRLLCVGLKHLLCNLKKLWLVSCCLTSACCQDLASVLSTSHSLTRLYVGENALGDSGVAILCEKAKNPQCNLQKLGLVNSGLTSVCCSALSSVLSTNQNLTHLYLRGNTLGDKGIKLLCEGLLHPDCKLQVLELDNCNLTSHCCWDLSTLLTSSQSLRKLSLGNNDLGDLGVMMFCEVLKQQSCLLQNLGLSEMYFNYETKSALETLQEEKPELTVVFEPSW

In general, IC50 refers to the concentration that gives 50% inhibition. High values mean lower potency, low ones higher potency. On to `Cc1ccc(-n2cc3c(=O)[nH]c(N4CC(F)(F)C(F)(F)C4)nc3n2)c(C)c1` [Example 85], for which inhibition was half-maximal at 24 nM (IC50). As for `O=c1[nH]c(N2CC(F)C2)nc2nn(-c3ccc(C(F)(F)F)cc3Cl)cc12` [Example 181], 17 nM corresponded to half-maximal inhibition (IC50). Still for that read-out and setting: for `Cc1nn(C2CCCC2)c(C)c1-n1cc2c(=O)[nH]c(N3CCCC3)nc2n1` [Example 350] the value was 1200 nM; for `Cc1cc(Br)ccc1-n1cc2c(=O)[nH]c(N3CCN(S(C)(=O)=O)CC3)nc2n1` [Example 91], 6.7 nM; for `C#Cc1ccc(-n2cc3c(=O)[nH]c(N4CCCC4)nc3n2)c(C)c1` [Example 119], 16 nM. The same measure, in the same setting: for `Cc1ccc(-n2cc3c(=O)[nH]c(N4CCCC4)nc3n2)cc1C` [Example 52] the value was 2100 nM; for `Cc1cc(C(F)(F)F)cc(C)c1-n1cc2c(=O)[nH]c(N3CC4CC(C3)O4)nc2n1` [Example 277], 16 nM; for `Cc1cc(Br)ccc1-n1cc2c(OCC3CC3)nc(N3CCOCC3)nc2n1` [Example 155], 290 nM. The same measure, in the same setting: then `Cc1cccc(C)c1-n1cc2c(=O)[nH]c(N3CC(C(F)(F)F)C3)nc2n1` [Example 53], with 750 nM; and `O=c1[nH]c(N2CCOCC2)nc2nn(-c3ccc(Br)cc3OC(F)(F)F)cc12` [Example 206], with 12 nM; and `Cc1cc(OC(F)F)cc(C)c1-n1cc2c(=O)[nH]c(N3CCOCCO3)nc2n1` [Example 352], with 68 nM. Consider `CNc1nc2nn(-c3c(C)cc(Br)cc3C)cc2c(=O)[nH]1` [Example 185], for which the IC50 is 5.6 nM. On to `Cc1cc(Br)ccc1-n1cc2c(=O)[nH]c(N3CCN(S(=O)(=O)C4CC4)CC3)nc2n1` [Example 139], for which the IC50 was 5.3 nM. On the same count and under the same terms, then `Cc1ccc(-n2cc3c(=O)[nH]c(N4CCCC4)nc3n2)c(Cl)c1` [Example 87], with 5.1 nM; and `Cc1cc(Cl)ccc1-n1cc2c(=O)[nH]c(N3CCOCC3)nc2n1` [Example 164], with 29 nM; and `CC(C)c1ccccc1-n1cc2c(=O)[nH]c(N3CCCC3)nc2n1` [Example 31], with 540 nM.

In the case of `Cc1ccccc1-n1cc2c(=O)[nH]c(N3CCOCC3)nc2n1` [Example 5], the IC50 is 1400 nM. Same read-out and setting: then `COc1nc(N2CCN(S(C)(=O)=O)CC2)nc2nn(-c3ccc(Br)cc3C)cc12` [Example 137], with 170 nM; and `CCOC1CCN(c2nc3nn(-c4ccccc4C)cc3c(=O)[nH]2)C1` (racemic) [Example 28], with 950 nM. For the molecule `O=c1[nH]c(N2CCCNCC2)nc2nn(-c3ccc(C(F)(F)F)cc3Cl)cc12` [Example 133], the IC50 came out at 63 nM. The same measure, in the same setting: then `Cc1cc(C(F)(F)F)cc(C)c1-n1cc2c(=O)[nH]c(N3C[C@@H]4C[C@H]3CO4)nc2n1` [Example 250], with 8.9 nM; and `COC[C@@H]1CCN(c2nc3nn(-c4ccc(Br)cc4C)cc3c(=O)[nH]2)CCO1` [Example 192], with 32 nM. Same read-out and setting: for `Cc1cc(Br)cc(C)c1-n1cc2c(=O)[nH]c(NC3CCCN(C)C3)nc2n1` (racemic) [Example 245] the value was 8 nM. On the same count and under the same terms, for `Cc1cc(C(C)C)cc(C)c1-n1cc2c(=O)[nH]c(N3CCOCC3)nc2n1` [Example 301] the value was 21 nM; for `Cc1cc(Br)cc(C)c1-n1cc2c(=O)[nH]c(N3CCOCC3O)nc2n1` (racemic) [Example 363], 2.9 nM.

Take `Cc1c2c(=O)[nH]c(N3CCCC3)nc2nn1-c1ccc(C(F)(F)F)cc1Cl` [Example 170]: it took 88 nM to reach half-maximal inhibition (IC50).

The molecule `CC(=O)NC1CCN(c2nc3nn(-c4c(C)cc(C)cc4C)cc3c(=O)[nH]2)C1` (racemic) [Example 111] returned an IC50 of 56 nM. On the same count and under the same terms, then `Cc1cc(Cl)cc(C=O)c1-n1cc2c(=O)[nH]c(N3CCOCC3)nc2n1` [Example 160], with 36 nM; and `Cc1cc(C2CC2)cc(Cl)c1-n1cc2c(=O)[nH]c(N3CC4CC(C3)O4)nc2n1` [Example 297], with 9.9 nM; and `Cc1cc(Br)cc(C)c1-n1cc2c(=O)[nH]c(NCC(F)(F)F)nc2n1` [Example 266], with 14 nM. In turn, `Cc1cc(Br)ccc1-n1cc2c(OCC#N)nc(N3CCOCC3)nc2n1` [Example 156] yielded an IC50 of 290 nM.

`Cc1cc(C)c(-n2cc3c(=O)[nH]c(N4CCCOCC4)nc3n2)c(C)c1` [Example 100] yielded an IC50 of 20 nM. This IC50 lies about 14-fold lower than the previous one.

`COCC(=O)N1CC2CC1CN2c1nc2nn(-c3c(C)cc(Br)cc3C)cc2c(=O)[nH]1` (racemic) [Example 220] came in with an IC50 of 23 nM. On the same count and under the same terms, for `Cc1cc(Br)ccc1-n1cc2c(=O)[nH]c(N3CCS(=O)(=O)CC3)nc2n1` [Example 79] the value was 5.9 nM; for `Cc1cc(C(F)(F)F)ncc1-n1cc2c(=O)[nH]c(N3CCOCC3)nc2n1` [Example 98, 2-(4-methyl-6-(trifluoromethyl)pyridin-3-yl)-6-morpholino-2,5-dihydro-4H-pyrazolo[3,4-d]pyrimidin-4-one], 54 nM. Still for that read-out and setting: then `CC(C)Oc1cc(Br)ccc1-n1cc2c(=O)[nH]c(N3CCOCC3)nc2n1` [Example 303], with 88 nM. For orientation: inhibition means the change of the read-out against control, counted positive when it falls. As to `Cc1ccccc1-n1cc2c(=O)[nH]c(Nc3c4c(cc5c3CCC5)CCC4)nc2n1` [Example 44], the inhibition at 24 µM (test compound 24 μM) was 21%. `Cc1cc(C(F)(F)F)cc(C)c1-n1cc2c(=O)[nH]c(N3CC4CCC(C3)O4)nc2n1` [Example 295] gave an IC50 of 20 nM.

As for `O=c1[nH]c(N2C[C@H]3C[C@@H]2CO3)nc2nn(-c3ccc(C4CC4)cc3C(F)(F)F)cc12` [Example 262], inhibition was half-maximal at 9.8 nM (IC50). `Cc1cc(C)c(-n2cc3c(=O)[nH]c(N4CCCC(CO)C4)nc3n2)c(C)c1` (racemic) [Example 116] registered an IC50 of 79 nM. Compared with the last molecule, the IC50 is about 8.1-fold higher. Same read-out and setting: for `CCCCNc1nc2nn(-c3ccccc3C)cc2c(=O)[nH]1` [Example 61] the value was 680 nM; for `COC1CCN(c2nc3nn(-c4ccc(C)cc4C)cc3c(=O)[nH]2)C1` (racemic) [Example 56], 190 nM; for `CC(C)c1cc(C(F)(F)F)cnc1-n1cc2c(=O)[nH]c(N3CCOCC3)nc2n1` [Example 236], 730 nM. The molecule `Cc1c(Cl)ccc(-n2cc3c(=O)[nH]c(N4CCOCC4)nc3n2)c1C` [Example 282] showed an IC50 of 180 nM. Consider `COC1CCN(c2nc3nn(-c4c(C)cc(C)cc4C)cc3c(=O)[nH]2)C1` (racemic) [Example 93], for which the IC50 was determined as 9.1 nM. In the case of `Cc1cc(Br)cc(C)c1-n1cc2c(=O)[nH]c(N3C[C@H]4C[C@@H]3CO4)nc2n1` [Example 197], inhibition was half-maximal at 8 nM (IC50). This IC50 and that of the molecule before are within 1.5-fold of each other.

On to `Cc1cc(C#N)ccc1-n1cc2c(=O)[nH]c(N3CCCC3)nc2n1` [Example 71], for which the IC50 was found to be 1200 nM. Same read-out and setting: for `Cc1cc(Br)cc(C)c1-n1cc2c(=O)[nH]c(N3CCCC3)nc2n1` [Example 280] the value was 4.2 nM. The same measure, in the same setting: then `CNC(=O)C1CCN(c2nc3nn(-c4c(C)cc(C)cc4C)cc3c(=O)[nH]2)C1` (racemic) [Example 110], with 80 nM. Same read-out and setting: then `O=c1[nH]c(N2CCOCC2)nc2nn(-c3ccc(C4CC4)cc3C(F)F)cc12` [Example 244], with 22 nM; and `COc1ccccc1CN(C)c1nc2nn(-c3ccccc3C)cc2c(=O)[nH]1` [Example 7], with 22000 nM; and `Cc1c2c(=O)[nH]c(N3CCCC3)nc2nn1-c1ccc(C(F)(F)F)cc1` [Example 151], with 50 nM. In the case of `Cc1nn(C2CCC2)c(C)c1-n1cc2c(=O)[nH]c(N3CCCC3)nc2n1` [Example 344], half-maximal inhibition (IC50) was put at 650 nM. Still for that read-out and setting: then `Cc1cc(Cl)cc(CO)c1-n1cc2c(=O)[nH]c(N3CCOCC3)nc2n1` [Example 158], with 92 nM. `Cc1cc(OC(F)F)cc(C)c1-n1cc2c(=O)[nH]c(N3CCOCC3=O)nc2n1` [Example 354] registered an IC50 of 220 nM. On the same count and under the same terms, for `CONc1nc2nn(-c3c(C)cc(Br)cc3C)cc2c(=O)[nH]1` [Example 336] the value was 28 nM; for `CO[C@@H]1CCN(c2nc3nn(-c4c(C)cc(C5CC5)cc4C)cc3c(=O)[nH]2)C1` [Example 317], 5.2 nM. The same measure, in the same setting: then `[2H]C([2H])([2H])Nc1nc2nn(-c3c(C)cc(Br)cc3C)cc2c(=O)[nH]1` [Example 229], with 9.4 nM; and `O=c1[nH]c(N2C[C@H]3C[C@@H]2CO3)nc2nn(-c3ccc(Br)cc3C(O)C3CC3)cc12` (stereo partly shown) [Example 309], with 110 nM. The molecule `Cc1cc(C)c(-n2cc3c(=O)[nH]c(N4CCOCC4)nc3n2)c(Cl)c1` [Example 148] showed an IC50 of 19 nM. Same read-out and setting: for `CCc1ccc(-n2cc3c(=O)[nH]c(N4CCCC4)nc3n2)c(C)c1` [Example 120] the value was 19 nM. In turn, `O=c1[nH]c(N2CC(O)C2)nc2nn(-c3ccc(C(F)(F)F)cc3Cl)cc12` [Example 182] had an IC50 of 79 nM. With `Cc1cc(Br)ccc1-n1cc2c(=O)n(CCO)c(N3CCOCC3)nc2n1` [Example 163], the IC50 was 47 nM. The molecule `Cc1cc(C)c(-n2cc3c(=O)[nH]c(N4CCC(N(C)C)C4)nc3n2)c(C)c1` (racemic) [Example 113] returned an IC50 of 63 nM. Still for that read-out and setting: then `CCOC1CCN(c2nc3nn(-c4ccc(C)cc4C)cc3c(=O)[nH]2)C1` (racemic) [Example 57], with 150 nM. The same measure, in the same setting: for `Cc1cc(Cl)ccc1-n1cc2c(=O)[nH]c(N3CCCC3)nc2n1` [Example 95] the value was 5.2 nM. Same read-out and setting: for `COC1CN(c2nc3nn(-c4ccccc4C)cc3c(=O)[nH]2)C1` [Example 33] the value was 2300 nM.

These data come from patent US20240287079A1, “6-AMINOPYRAZOLOPYRIMIDINE COMPOUND AND PHARMACEUTICAL USE THEREOF” (Japan Tobacco Inc., priority 2021, published 2024).
